Data: patent US5972598A, “Methods for preventing multidrug resistance in cancer cells” (priority 1995, dated 1999)
“Also recorded” adds a separate entry of the source. Read-outs that look alike come from different tables or passages of the source. Values belong to the molecule of their own block, whether it stands above or below them.

Legend:
MDR1 [1] = assay type: cell-based, human
Experimental: The times of drug exposure are indicated.
(§1) (Commercially-available kits (for example, from GIBCO/BRL, Gaithersburg, Md.) can be advantageously modified for making cDNA using random hexamers.) PCR is then performed using the following primers: […]
Next, it was tested whether drug-induced MDR1 expression was maintained after the cytotoxic treatment. […] At different time points, MDR1 expression in the surviving cells was analyzed by dye efflux and immunofluorescence labeling with UIC2 (FIG. 3c) or by cDNA-PCR (FIG. 4e).

P-glycoprotein = P-glycoprotein (Homo sapiens, UniProt P08183); test: Rh123 accumulation assay of P-glycoprotein activity in human PBL
Chain of P-glycoprotein (P08183 whole entry): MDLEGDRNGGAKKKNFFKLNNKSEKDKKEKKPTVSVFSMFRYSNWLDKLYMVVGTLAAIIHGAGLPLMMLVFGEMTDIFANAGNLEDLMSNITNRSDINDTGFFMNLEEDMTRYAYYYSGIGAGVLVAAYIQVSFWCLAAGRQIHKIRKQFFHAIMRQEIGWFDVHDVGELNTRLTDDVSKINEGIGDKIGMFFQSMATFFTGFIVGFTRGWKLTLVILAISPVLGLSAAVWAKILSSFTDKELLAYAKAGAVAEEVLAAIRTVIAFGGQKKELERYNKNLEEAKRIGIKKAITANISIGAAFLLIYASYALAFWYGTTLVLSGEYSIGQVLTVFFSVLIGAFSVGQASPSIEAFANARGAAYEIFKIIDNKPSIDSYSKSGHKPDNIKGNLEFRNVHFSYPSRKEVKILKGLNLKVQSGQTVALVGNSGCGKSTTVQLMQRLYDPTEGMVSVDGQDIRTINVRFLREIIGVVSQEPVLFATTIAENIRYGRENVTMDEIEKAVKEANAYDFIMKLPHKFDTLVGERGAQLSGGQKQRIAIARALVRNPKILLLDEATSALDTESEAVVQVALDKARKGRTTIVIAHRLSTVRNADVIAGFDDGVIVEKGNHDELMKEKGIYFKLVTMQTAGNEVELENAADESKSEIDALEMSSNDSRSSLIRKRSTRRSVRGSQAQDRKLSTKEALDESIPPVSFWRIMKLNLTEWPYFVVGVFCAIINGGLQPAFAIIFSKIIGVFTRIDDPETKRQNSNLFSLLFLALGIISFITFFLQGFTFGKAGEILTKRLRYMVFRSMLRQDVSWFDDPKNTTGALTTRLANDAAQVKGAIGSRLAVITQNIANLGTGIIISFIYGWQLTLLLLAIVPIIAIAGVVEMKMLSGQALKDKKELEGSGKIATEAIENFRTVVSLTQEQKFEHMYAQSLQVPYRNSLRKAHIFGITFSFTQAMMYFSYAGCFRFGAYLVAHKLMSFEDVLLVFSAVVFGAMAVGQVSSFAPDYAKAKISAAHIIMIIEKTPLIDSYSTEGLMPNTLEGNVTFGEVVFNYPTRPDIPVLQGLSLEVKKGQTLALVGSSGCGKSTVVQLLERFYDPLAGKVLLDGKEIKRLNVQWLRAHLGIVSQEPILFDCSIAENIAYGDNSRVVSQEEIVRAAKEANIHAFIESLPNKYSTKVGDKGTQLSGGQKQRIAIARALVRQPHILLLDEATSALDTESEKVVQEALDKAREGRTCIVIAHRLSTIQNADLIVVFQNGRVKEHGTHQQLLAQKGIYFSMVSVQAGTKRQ
Experimental: KG1 cell line was maintained in Iscove's modified Dulbecco medium with 20% fetal calf serum (FCS) and 2 mM L-glutamine, 100 units/ml penicillin and 100 μg/ml streptomycin (GIBCO Laboratories, Grand Island, N.Y.).
A functional assay was used to detect changes in P-glycoprotein activity in human PBL treated with different agents that induce lymphoid differentiation or activation, based on flow cytometric analysis of cellular accumulation of Rh123, which is a P-glycoprotein-transported fluorescent mitochondrial dye. In this assay, cells expressing little or no P-glycoprotein stain brightly with Rh123, whereas cells with higher levels of P-glycoprotein activity appear Rh123-dull. […] Since the best-known cellular effect of TPA is the stimulation of PKC, it was also tested whether DOG, a cell-permeable diacylglycerol and a physiological stimulant of PKC, would have an effect on Rh123 accumulation in PBL.

tumor [2] = conditions: cited from earlier work; for antitumor activity in vivo: literature
tumor [3] = conditions: nude mice; Meyer et al., 1989; cited from earlier work
MDR1 [4] = test: cDNA-PCR / flow cytometric analysis of MDR1 induction by PKC agonists; assay type: cell-based, human
Experimental: Neomycin sulfate (Calbiochem) was dissolved in sterile, deionized water.
P-glycoprotein expression on the cell surface was analyzed using a P-glycoprotein-specific mouse IgG2a monoclonal antibody (mAB) UIC2 (Mechetner and Roninson, 1992, Proc. Natl. Acad. Sci. USA 89:5824-5828). Mouse IgG2a isotype control antibody was obtained from Sigma. For staining of PBL with UIC2 mAB or isotype control, 10^6 cells were stained at 4° C. with 10 μg of the antibody for 30 minutes and, after two washes, stained for 30 minutes with 10 μg of FITC-conjugated goat anti-mouse IgG2a antibody (Fisher Scientific, Fairlawn, N.J.), diluted 1:2 with PBS plus 2% FCS. Cells were then washed twice with ice-cold PBS plus 2% FCS, stained with PI and kept on ice until analysis. Essentially the same protocol was used for staining of other cell types except that 2 μg of the secondary antibody were used per 10^6 cells. In some experiments, phycoerythrine (PE)-conjugated goat anti-mouse IgG2a was used as the secondary antibody; no PI was added in such cases. Flow cytometric analysis was conducted on a Coulter Epics 753 Flow Cytometer.
RNA was extracted from approximately 10^6 cells by a small-scale sodium dodecyl sulfate extraction procedure (Peppel and Baglioni, 1990, BioTechniques 9:711-713). In the alternative, RNA was isolated from cells using the TRIzol method (commercially available from GIBCO/BRL). cDNA synthesis and polymerase chain reaction (PCR) amplification of MDR1 and β2 -microglobulin cDNA sequences were carried out essentially as described (Noonan et al., 1990, Proc. Natl. Acad. Sci. USA 87:7160-7164; Noonan and Roninson, 1991, pp. 319-333 In Roninson (Ed.), Molecular and Cellular Biology of Multidrug Resistance in Tumor Cells, Plenum Press, New York). Briefly, cDNA was prepared using the method of Krug and Berger (1987, Meth. Enzymol. 152: 316-324), with the modification that random hexamers were substituted for oligo(dT) as primers for cDNA synthesis. (Commercially-available kits (for example, from GIBCO/BRL, Gaithersburg, Md.) can be advantageously modified for making cDNA using random hexamers.) PCR is then performed using the following primers: […]
(§2) (where β2 M represents β2 microglobulin). PCR was performed for β2 M experiments under a regime consisting of 1 cycle comprising denaturation at 94° C. for 3 minutes, primer annealing at 60° C. for 30 seconds, and primer extension at 72° C. for 1 minute, followed by 19 cycles comprising denaturation at 94° C. for 30 seconds, primer annealing at 60° C. for 30 seconds, and primer extension at 72° C. for 1 minute, followed by a final cycle comprising denaturation at 94° C. for 30 seconds, primer annealing at 60° C. for 30 seconds, and primer extension at 72° C. for 5 minutes. MDR1 cDNA sequences were amplified using the identical protocol as for β2 M, but extending the amplification from 19 cycles to 25 cycles. In addition, the cDNA-PCR amplification protocol contained the following modifications: (i) Taq DNA polymerase was added to the PCR mixtures after initial heating of the samples to 94° C. (ii) The yield of the β2 -microglobulin-specific band, obtained after 22-28 cycles of PCR, was used as the primary criterion for equalizing the starting amounts of the cDNA templates in different preparations, in order to account for differential RNA degradation in cells subjected to different types of treatment. […] PCR products were detected by autoradiography.

MDR1 [5] = test: Inhibition of cytotoxic drug (Ara-C) induced MDR1 expression by protein kinase inhibitors; assay type: cell-based, human
Experimental: FIG. 5. Effect of protein kinase inhibitors on MDR1 mRNA induction by cytotoxic drugs in H9 cells. […]
as §1, §2
Cells were plated in 6-well Falcon tissue culture plates at 3,300 cells per well, and incubated in the appropriate concentrations of drugs. Each of the protein kinase inhibitors to be tested were added at their appropriate final concentrations 45 minutes prior to MDR1 induction by the addition of Ara-C or TPA, with the exception of herbimycin A, which was added 12 hours prior to Ara-C or TPA, and tyrphostins A25 and B46, which were each added 16 hours prior to MDR1 induction by the addition of Ara-C or TPA. Cells were incubated overnight (TPA) or for 10 hours (Ara-C) at 37° C. under an atmosphere of 5% CO2 after the addition of the MDR1 inducing agents before harvesting for cDNA-PCR analysis.
In addition to these conditions, the analysis of certain drugs imposed added requirements. For experiments using calphostin C, cells were incubated under direct white light illumination. For experiments using D,L-threo-sphingosine, the cell culture medium was pre-treated with the appropriate concentration of the drug for one hour at 37° C. with continuous gentle mixing. After this pre-treatment, cells were resuspended in media supplemented with drug and incubated for 45 minutes as described above.
cDNA-PCR analyses on each culture treated with drugs, or in control cultures incubated in the absence or presence of Ara-C or TPA alone, were performed as described in Section 6.1.3 above.
To further evaluate the capacity of protein kinase inhibitors to suppress MDR1 induction by cytotoxic drugs and PKC agonists, H-9 human T cell leukemia cells were used in cDNA-PCR assays to examine induced MDR1 mRNA expression levels in the presence of such protein kinase inhibitors.

MRP = test: Inhibition of MRP expression in H-9 cells; assay type: cell-based, human; design: Inhibition of MRP Expression: key to the marks not given beside the values
Experimental: PCR was performed using the following primers: […]
(where β2 M represents β2 microglobulin). PCR was performed for β2 M experiments under a regime consisting of 1 cycle comprising denaturation at 94° C. for 3 minutes, primer annealing at 60° C. for 30 seconds, and primer extension at 72° C. for 1 minute, followed by 19 cycles comprising denaturation at 94° C. for 30 seconds, primer annealing at 60° C. for 30 seconds, and primer extension at 72° C. for 1 minute, followed by a final cycle comprising denaturation at 94° C. for 30 seconds, primer annealing at 60° C. for 30 seconds, and primer extension at 72° C. for 5 minutes.

PKC = conditions: literature; cited from earlier work

Molecule: O=c1[nH]cc(F)c(=O)[nH]1 [5-fluorouracil]
MDR1 induction, mRNA and protein levels (MDR1 [1]): MDR1 induction, both at the mRNA and at the protein levels, was observed

Molecule: CNc1ccc2oc(C[C@H]3O[C@@]4(CC[C@H]3C)O[C@H]([C@H](C)C(=O)c3ccc[nH]3)[C@H](C)C[C@H]4C)nc2c1C(=O)O [A23187]
effect on P-glycoprotein activity (Rh123 accumulation) (P-glycoprotein; human PBL): No apparent effects on P-glycoprotein

Molecule: CCN(CC)CCN1C(=O)c2c(c3c4cccc(Cl)c4n([C@@H]4O[C@H](CO)[C@@H](OC)[C@H](O)[C@H]4O)c3c3[nH]c4c(Cl)cccc4c23)C1=O [BMY 27557, 8-N-(diethylaminoethyl) rebeccamycin]
optimal total dose, i.p., nine equal injections per day at 12 mg/kg/injection (tumor [2]; i.p., Schurig et al., 1990): 108 mg/kg | optimal total dose, i.p., single dose (tumor [2]; i.p., Schurig et al., 1990): 64 mg/kg | antitumor activity in vivo (tumor [2]): antitumor activity in vivo

Molecule: CO[C@@H]1[C@H](N(C)C(=O)c2ccccc2)C[C@H]2O[C@]1(C)n1c3ccccc3c3c4c(c5c6ccccc6n2c5c31)C(=O)NC4 [CGP 41 251]
anti-tumor effect at fraction of MTD (tumor [3]): 1/10 | maximum tolerated dose (MTD) (tumor [3]): 250 mg/kg

effect on P-glycoprotein activity (Rh123 accumulation) (P-glycoprotein; human PBL): decreased Rh123 accumulation
Molecule: CCCCCCCC(=O)OCC(CO)OC(=O)CCCCCCC (stereo not shown) [DOG, 1,2-dioctanoylglycerol]
induction of MDR1 mRNA and P-glycoprotein (MDR1 [4]; H9 cells): clear-cut induction of MDR1 mRNA and P-glycoprotein | induction of MDR1 mRNA and P-glycoprotein (MDR1 [4]; K562 cells): clear-cut induction of MDR1 mRNA and P-glycoprotein

Molecule: CN[C@@H]1C[C@H]2O[C@@](C)([C@@H]1OC)n1c3ccccc3c3c4c(c5c6ccccc6n2c5c31)C(=O)N[C@H]4O [UCN-01]
antitumor activity in vivo (tumor [2]): antitumor activity in vivo

Molecule: COc1c(CC(C)OC(=O)Oc2ccc(O)cc2)c2c3c(CC(C)OC(=O)c4ccccc4)c(OC)c(=O)c4c(O)cc(OC)c(c5c(OC)cc(O)c(c1=O)c52)c43 (stereo not shown) [calphostin C]
prevention of MDR1 induction by chemotherapeutic drugs (MDR1 [5]; 1 μM with white light illumination): prevent MDR1 induction | inhibition of Ara-C induced MDR1 expression (MDR1 [5]; H-9 cells, 0.1 μM with white light illumination): greatly reduced | inhibition of Ara-C induced MDR1 expression (MDR1 [5]; H-9 cells, 1 μM with white light illumination): capable of inhibiting MDR1 expression

Molecule: COc1ccc2c(c[n+](C)c3c4cc5c(cc4ccc23)OCO5)c1OC [chelerythrine]
prevention of MDR1 induction by chemotherapeutic drugs (MDR1 [5]; 5 μM): prevent MDR1 induction | inhibition of Ara-C induced MDR1 expression (MDR1 [5]; H-9 cells, 1 μM and 5 μM): Progressive dose-dependent inhibition | Inhibition of MRP Expression (MRP; 1-5 μM): ++++ | inhibition of MRP expression (MRP; 1-5 μM): strongly inhibited; also recorded: capable of inhibiting MRP expression

Molecule: N.N.[Cl][Pt][Cl] [cisplatin]
MDR1 mRNA induction (MDR1 [1]; K562 cells): induce MDR1 mRNA expression | MDR1 induction, mRNA and protein levels (MDR1 [1]; human leukemia and solid-tumor derived cell lines, subpopulation of treated cells): MDR1 induction, both at the mRNA and at the protein levels, was observed

Molecule: O=CN/C=C/c1cc(O)ccc1O [erbstatin]
antitumor activity in vivo (tumor [2]): antitumor activity in vivo | inhibition of protein kinase C (PKC): protein kinase C inhibitors

Molecule: COc1cc([C@@H]2c3cc4c(cc3[C@@H](O[C@@H]3O[C@@H]5CO[C@@H](C)O[C@H]5[C@H](O)[C@H]3O)[C@H]3COC(=O)[C@H]23)OCO4)cc(OC)c1O [etoposide]
MDR1 induction, mRNA and protein levels (MDR1 [1]): MDR1 induction, both at the mRNA and at the protein levels, was observed

Molecule: O=c1c(-c2ccc(O)cc2)coc2cc(O)cc(O)c12 [genistein]
inhibition of Ara-C induced MDR1 expression (MDR1 [5]; 150 μM): only weakly inhibited Ara-C induced MDR1 expression | inhibition of Ara-C induced MDR1 expression (MDR1 [5]; H9 cells, 25 μM Ara-C 10 h, 150 μM): +

Molecule: COC1C=CC=C(C)C(=O)NC2=CC(=O)C=C(C2=O)C(OC)C(C)CC(OC)C(OC)C(C)C=C(C)C1OC(N)=O (stereo not shown) [herbimycin A]
inhibition of Ara-C induced MDR1 expression (MDR1 [5]; 0.35-3 μM): little or no capacity to inhibit Ara-C induced MDR1 expression; also recorded: ineffective at inhibiting MDR1 induction by Ara-C | inhibition of Ara-C induced MDR1 expression (MDR1 [5]; H9 cells, 25 μM Ara-C 10 h, 0.3-3 μM (12 h)): -

Molecule: CN(Cc1cnc2nc(N)nc(N)c2n1)c1ccc(C(=O)N[C@@H](CCC(=O)O)C(=O)O)cc1 [methotrexate]
MDR1 induction, mRNA and protein levels (MDR1 [1]): MDR1 induction, both at the mRNA and at the protein levels, was observed | MDR1 mRNA expression (MDR1 [1]): MDR1 mRNA expression was induced | maintenance of MDR1 expression after removal of the drug (MDR1 [1]): least several weeks

Molecule: N#CC(C#N)=Cc1cc(O)c(O)c(O)c1 [tyrphostin A25]
inhibition of Ara-C induced MDR1 expression (MDR1 [5]; H-9 cells, 50-100 μM): strongly inhibit Ara-C induced MDR1 expression; also recorded: inhibit Ara-C induced MDR1 expression

Molecule: N#CC(=Cc1ccc(O)c(O)c1)C(=O)NCCCc1ccccc1 [tyrphostin B46]
inhibition of Ara-C induced MDR1 expression (MDR1 [5]; H-9 cells, 50-100 μM): strongly inhibit Ara-C induced MDR1 expression; also recorded: inhibit Ara-C induced MDR1 expression

Molecule: IL-1α
effect on P-glycoprotein activity (Rh123 accumulation) (P-glycoprotein): No apparent effects on P-glycoprotein

Molecule: neomycin sulfate
inhibition of Ara-C induced MDR1 expression (MDR1 [5]; H-9 cells, 10 mM): inhibit Ara-C induced MDR1 expression | inhibition of protein kinase C (PKC): protein kinase C inhibitors | Inhibition of MRP Expression (MRP; 10 mM): ++++ | inhibition of MRP expression (MRP; 10 mM): strongly inhibited; also recorded: capable of inhibiting MRP expression
